From paper PMC3102611, “The inhibition of the mammalian DNA methyltransferase 3a (Dnmt3a) by dietary black tea and coffee polyphenols” (2011)

Molecular target: T1, Dnmt3a (Mus musculus, UniProt O88508)
T1 construct: C-terminal catalytic domain (Dnmt3a-C)
Test: Biotin-avidin DNA methylation kinetics assay with [methyl-3H]AdoMet, purified Dnmt3a-C
Type: biochemical

T1 sequence (O88508 608-908 limits assumed): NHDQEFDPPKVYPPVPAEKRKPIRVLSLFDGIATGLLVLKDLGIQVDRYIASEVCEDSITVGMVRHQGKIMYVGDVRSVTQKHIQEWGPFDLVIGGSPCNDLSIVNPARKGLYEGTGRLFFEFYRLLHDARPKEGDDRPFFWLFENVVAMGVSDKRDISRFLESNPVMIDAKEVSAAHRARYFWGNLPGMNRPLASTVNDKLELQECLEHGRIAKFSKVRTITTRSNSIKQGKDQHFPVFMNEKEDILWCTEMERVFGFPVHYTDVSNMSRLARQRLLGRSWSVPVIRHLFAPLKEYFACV

In the case of `COC(=O)[C@]1(OC(=O)/C=C/c2ccc(O)c(O)c2)C[C@H](OC(=O)/C=C/c2ccc(O)c(O)c2)[C@H]2O[C@@](C)(OC)[C@](C)(OC)O[C@@H]2C1` [N12, 1,3-dicaffeoyl-muco-quinic acid diacetal], the IC50 is reported as 35 µM.
